# Measured values reported in ChEMBL document CHEMBL1134996, “Non-peptide alpha(v)beta(3) antagonists. Part 5: identification of potent RGD mimetics incorporating 2-aryl beta-amino acids as aspartic acid replacements” (Bioorg Med Chem Lett, 2002).
# Tests used:
# Integrin alpha-V/beta-3 = Integrin alpha-V/beta-3 (Homo sapiens, UniProt P05106+P06756); assay: Inhibition of binding to human integrin receptor alpha V beta3; format: protein-complex assay
# [1] = Clearance after oral and iv dosing in dogs; format: ADME, organism-based, Canis lupus familiaris; conditions: dog, in vivo, read-out: CI
# [2] = Bioavailability in dog; format: ADME, organism-based, Canis lupus familiaris; conditions: in vivo
# Chain of Integrin alpha-V/beta-3 (P05106 27-788 limits assumed): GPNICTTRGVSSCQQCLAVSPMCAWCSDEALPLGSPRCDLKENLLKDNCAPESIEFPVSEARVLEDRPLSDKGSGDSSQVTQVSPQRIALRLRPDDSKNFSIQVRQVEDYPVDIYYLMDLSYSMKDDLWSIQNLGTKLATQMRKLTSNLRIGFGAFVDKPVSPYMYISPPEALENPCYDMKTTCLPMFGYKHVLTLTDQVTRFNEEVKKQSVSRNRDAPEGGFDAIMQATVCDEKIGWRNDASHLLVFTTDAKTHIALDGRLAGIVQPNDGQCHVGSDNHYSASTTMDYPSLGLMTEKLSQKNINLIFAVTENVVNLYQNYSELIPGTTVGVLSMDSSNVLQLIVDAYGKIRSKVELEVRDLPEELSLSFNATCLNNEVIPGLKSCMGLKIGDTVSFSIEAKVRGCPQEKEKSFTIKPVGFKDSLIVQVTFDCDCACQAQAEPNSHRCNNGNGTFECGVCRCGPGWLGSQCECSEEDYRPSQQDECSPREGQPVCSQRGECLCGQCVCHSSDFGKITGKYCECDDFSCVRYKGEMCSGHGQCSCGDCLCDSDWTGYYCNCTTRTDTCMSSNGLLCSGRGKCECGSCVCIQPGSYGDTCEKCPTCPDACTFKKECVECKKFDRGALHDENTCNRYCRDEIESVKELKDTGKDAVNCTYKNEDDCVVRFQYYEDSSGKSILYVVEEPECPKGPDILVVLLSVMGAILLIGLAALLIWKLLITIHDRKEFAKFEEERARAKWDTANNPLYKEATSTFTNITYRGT
# Chain of Integrin alpha-V/beta-3 (P06756 31-889 limits assumed): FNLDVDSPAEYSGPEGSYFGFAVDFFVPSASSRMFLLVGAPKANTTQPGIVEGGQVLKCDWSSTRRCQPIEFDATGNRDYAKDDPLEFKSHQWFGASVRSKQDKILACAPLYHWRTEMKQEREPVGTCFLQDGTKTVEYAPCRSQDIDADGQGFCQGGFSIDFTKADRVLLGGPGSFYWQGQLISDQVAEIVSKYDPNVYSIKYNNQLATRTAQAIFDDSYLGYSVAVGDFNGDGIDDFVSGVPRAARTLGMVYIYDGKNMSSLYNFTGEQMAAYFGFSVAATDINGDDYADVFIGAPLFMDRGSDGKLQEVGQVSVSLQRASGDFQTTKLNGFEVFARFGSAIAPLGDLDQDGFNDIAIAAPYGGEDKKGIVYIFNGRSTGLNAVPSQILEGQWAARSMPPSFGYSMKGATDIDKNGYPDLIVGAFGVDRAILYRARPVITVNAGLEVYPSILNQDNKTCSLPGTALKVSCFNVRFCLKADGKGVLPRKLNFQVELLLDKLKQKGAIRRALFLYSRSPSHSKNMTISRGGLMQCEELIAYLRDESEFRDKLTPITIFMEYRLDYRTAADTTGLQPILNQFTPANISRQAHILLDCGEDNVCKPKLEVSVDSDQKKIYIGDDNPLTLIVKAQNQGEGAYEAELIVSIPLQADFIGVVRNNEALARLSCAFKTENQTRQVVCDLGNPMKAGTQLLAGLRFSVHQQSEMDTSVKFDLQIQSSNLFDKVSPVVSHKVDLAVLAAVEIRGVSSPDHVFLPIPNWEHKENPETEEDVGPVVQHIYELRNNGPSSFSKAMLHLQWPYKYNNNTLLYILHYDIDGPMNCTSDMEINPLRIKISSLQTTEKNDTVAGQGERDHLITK
# Chain of Integrin alpha-V/beta-3 (P06756 891-1048 limits assumed): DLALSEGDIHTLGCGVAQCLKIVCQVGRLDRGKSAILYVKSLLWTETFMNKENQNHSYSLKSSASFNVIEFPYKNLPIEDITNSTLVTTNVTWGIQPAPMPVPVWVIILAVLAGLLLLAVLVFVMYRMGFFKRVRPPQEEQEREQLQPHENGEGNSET
IC50 (Integrin alpha-V/beta-3),clearance [1],bioavailability [2],SMILES
84 nM,–,–,O=C(O)C[C@H](NC(=O)CCCCc1ccc2c(n1)NCCC2)c1ccccc1
0.29 nM,13.7 mL/min/kg,40%,O=C(CCCCc1nc2c(cc1C1CC1)CCCN2)NCC(C(=O)O)c1ccc2c(c1)OCC2 (stereo not given)
–,2 mL/min/kg,–,O=C(O)C[C@H](NC(=O)CCCCc1ccc2c(n1)NCCC2)c1ccc2c(c1)OCC2
1.07 nM,–,–,O=C(O)C[C@H](NC(=O)CCCCc1ccc2c(n1)NCCC2)c1cnc2ccccc2c1
0.35 nM,10.3 mL/min/kg,18%,CN(CC(C(=O)O)c1ccc2c(c1)OCC2)C(=O)CCC1CCc2cc3c(nc2C1)NCCC3 (stereo not given)
0.72 nM,18.9 mL/min/kg,1.1%,O=C(CCC1CCc2cc3c(nc2C1)NCCC3)NCC(C(=O)O)c1ccc2c(c1)OCC2 (stereo not given)
0.49 nM,–,–,CN(CC(C(=O)O)c1ccc2c(c1)OCC2)C(=O)CCCCc1nc2c(cc1C1CC1)CCCN2 (stereo not given)
10.9 nM,–,–,O=C(CCCCc1ccc2c(n1)NCCC2)NCC(C(=O)O)c1cccc(F)c1 (stereo not given)
0.74 nM,–,–,CN(CC(C(=O)O)c1ccc2c(c1)OCC2)C(=O)CCCCc1ccc2c(n1)NCCC2 (stereo not given)
1.01 nM,6.6 mL/min/kg,47%,O=C(CCCCc1ccc2c(n1)NCCC2)NCC(C(=O)O)c1ccc2c(c1)OCC2 (stereo not given)
0.82 nM,–,–,O=C(CCCCc1ccc2c(n1)NCCC2)NCC(C(=O)O)c1cnc2ccccc2c1 (stereo not given)
57.4 nM,–,–,O=C(CCCCc1ccc2c(n1)NCCC2)NCC(C(=O)O)c1ccccc1 (stereo not given)
